Tests used:
NK-YS (IL-2 2.5 ng/mL) [1] = test: drug sensitivity score (DSS) (DSS units); higher = more sensitive; extreme values may be limits of the assay; details: 72 h
SNK-6 (IL-2 2.5 ng/mL) [2] = test: as above; details: 72 h
NK-92 (IL-2 2.5 ng/mL) [3] = test: as above; details: 72 h
NKL (IL-2 2.5 ng/mL) [4] = test: as above; details: 72 h
DERL-7 (IL-2 2.5 ng/mL) [5] = test: as above; details: 72 h
IMC-1 (IL-2 20 ng/mL) [6] = test: as above; details: 72 h
[7] = tested on: normal primary NK cells, pool 3 (3 donors) (IL-2 2.5 ng/mL); test: as above; details: 72 h
KAI3 (IL-2 2.5 ng/mL) [8] = test: as above; details: 72 h
[9] = tested on: normal primary NK cells, pool 1 (3 donors), resting (IL-2 0 ng/mL); test: as above; details: 72 h
[10] = tested on: normal primary NK cells, pool 2 (3 donors) (IL-2 2.5 ng/mL); test: as above; details: 72 h
[11] = tested on: normal primary NK cells, pool 1 (3 donors) (IL-2 2.5 ng/mL); test: as above; details: 72 h
KHYG-1 (IL-2 2.5 ng/mL) [12] = test: as above; details: 72 h
YT (IL-2 2.5 ng/mL) [13] = test: as above; details: 72 h
[14] = tested on: normal NK cells expanded with K562-aAPC; test: as above; details: 72 h; IL-2 2.5 ng/mL
Protocol: (§1)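 Drug sensitivity and resistance testing on K562-aAPC-expanded normal NK cells: 5 concentrations (10-fold steps over a 10,000-fold range), 72 h at 37 °C, viability by CellTiter-Glo normalised to DMSO and benzethonium chloride controls; DSS from the fitted curve.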

[15] = tested on: normal NK cells expanded with K562-aAPC; test: percent inhibition of viability; higher = more inhibition; details: 72 h, IL-2 2.5 ng/mL
Protocol: as §1

NK-YS (IL-2 2.5 ng/mL) [16] = test: as above; details: 72 h
SNK-6 (IL-2 2.5 ng/mL) [17] = test: as above; details: 72 h
NK-92 (IL-2 2.5 ng/mL) [18] = test: as above; details: 72 h
NKL (IL-2 2.5 ng/mL) [19] = test: as above; details: 72 h
DERL-7 (IL-2 2.5 ng/mL) [20] = test: as above; details: 72 h
IMC-1 (IL-2 20 ng/mL) [21] = test: as above; details: 72 h
[22] = tested on: normal primary NK cells, pool 3 (3 donors) (IL-2 2.5 ng/mL); test: as above; details: 72 h
KAI3 (IL-2 2.5 ng/mL) [23] = test: as above; details: 72 h
[24] = tested on: normal primary NK cells, pool 1 (3 donors), resting (IL-2 0 ng/mL); test: as above; details: 72 h
[25] = tested on: normal primary NK cells, pool 2 (3 donors) (IL-2 2.5 ng/mL); test: as above; details: 72 h
[26] = tested on: normal primary NK cells, pool 1 (3 donors) (IL-2 2.5 ng/mL); test: as above; details: 72 h
KHYG-1 (IL-2 2.5 ng/mL) [27] = test: as above; details: 72 h
YT (IL-2 2.5 ng/mL) [28] = test: as above; details: 72 h

Cc1ccc(C(=O)N(CCCN)[C@@H](c2oc3cc(Cl)ccc3c(=O)c2Cc2ccccc2)C(C)C)cc1 (max concentration tested 100 nM)
Details	drug sensitivity score
DERL-7 (IL-2 2.5 ng/mL) [5]	7.54
IMC-1 (IL-2 20 ng/mL) [6]	17.9
KAI3 (IL-2 2.5 ng/mL) [8]	6.54
KHYG-1 (IL-2 2.5 ng/mL) [12]	18.2
NK-92 (IL-2 2.5 ng/mL) [3]	7.14
NK-YS (IL-2 2.5 ng/mL) [1]	13.7
NKL (IL-2 2.5 ng/mL) [4]	14.5
SNK-6 (IL-2 2.5 ng/mL) [2]	15
YT (IL-2 2.5 ng/mL) [13]	4.68
[7]	3.16
[9]	0
[10]	1.26
[11]	0
[14]	8.92

percent inhibition of viability [%]
Details	0.01 nM	0.1 nM	1 nM	10 nM	100 nM
DERL-7 (IL-2 2.5 ng/mL) [20]	-6.36	-10.3	-3.04	12.1	100
IMC-1 (IL-2 20 ng/mL) [21]	-7.61	-1.73	0.06	99.8	101
KAI3 (IL-2 2.5 ng/mL) [23]	-6.39	-3.85	-7.56	25.9	57.9
KHYG-1 (IL-2 2.5 ng/mL) [27]	2.63	-2.09	3.33	98.1	108
NK-92 (IL-2 2.5 ng/mL) [18]	-6.69	-0.53	4.14	12.2	92.1
NK-YS (IL-2 2.5 ng/mL) [16]	-1.37	-2.68	5	71.1	80.5
NKL (IL-2 2.5 ng/mL) [19]	7.05	-6.08	0.2	79.2	94.4
SNK-6 (IL-2 2.5 ng/mL) [17]	-16.1	-20.8	5.75	78	91.8
YT (IL-2 2.5 ng/mL) [28]	-0.9	-3.95	-3.98	6.11	67.4
[15]	0.7	-0.13	0.62	47.5	60.9
[22]	-4.72	-7.26	16.7	13.5	15.5
[24]	-14	-28.1	6.55	-12.4	0.78
[25]	-6.06	-2.94	7.66	13.1	9.78
[26]	-6.46	-14.6	7.89	0.13	9.64

CNC(=O)c1ccc(C)c(-n2c(C)cc(OCc3ccc(F)cc3F)c(Br)c2=O)c1 (max concentration tested 1000 nM)
Details	drug sensitivity score
DERL-7 (IL-2 2.5 ng/mL) [5]	0
IMC-1 (IL-2 20 ng/mL) [6]	0.02
KAI3 (IL-2 2.5 ng/mL) [8]	4.23
KHYG-1 (IL-2 2.5 ng/mL) [12]	0.02
NK-92 (IL-2 2.5 ng/mL) [3]	1.12
NK-YS (IL-2 2.5 ng/mL) [1]	2.15
NKL (IL-2 2.5 ng/mL) [4]	5.52
SNK-6 (IL-2 2.5 ng/mL) [2]	0
YT (IL-2 2.5 ng/mL) [13]	0.89
[7]	0
[9]	0
[10]	0
[11]	3.24
[14]	0

percent inhibition of viability [%]
Details	0.1 nM	1 nM	10 nM	100 nM	1000 nM
DERL-7 (IL-2 2.5 ng/mL) [20]	-0.31	-4.89	-4.27	2.58	1.48
IMC-1 (IL-2 20 ng/mL) [21]	-9.65	-8.9	-7.96	-3.82	12.4
KAI3 (IL-2 2.5 ng/mL) [23]	-0.38	1.93	8.49	20.8	36
KHYG-1 (IL-2 2.5 ng/mL) [27]	-4.44	-7.81	-8.38	-3.53	12.3
NK-92 (IL-2 2.5 ng/mL) [18]	-1.67	-6.84	-3.84	-1.12	28.7
NK-YS (IL-2 2.5 ng/mL) [16]	-6.34	-5.21	0.76	7.92	26.5
NKL (IL-2 2.5 ng/mL) [19]	-10.5	-7	9.32	26.1	43.8
SNK-6 (IL-2 2.5 ng/mL) [17]	-18.8	-0.3	-20.7	-13.9	-14.7
YT (IL-2 2.5 ng/mL) [28]	-3.68	-3.72	-2.87	1.27	21.9
[15]	-9.29	-8.5	-9.81	-3.39	11.1
[22]	-6.51	-4.02	4.48	7.49	0.09
[24]	4.88	3.54	13.7	4.12	7.14
[25]	-5.3	-4.39	0.85	-1.04	-5.85
[26]	0.91	0.08	13.3	13.8	17.8
